Assay results from publication PMC11882969 (Nature Communications, 2025).
Several values for one entry are separate records, joined by “and”; a condition that tells them apart may be missing. Equal entries are not always repeated. Where two headings read alike, the source gives them in different places.

What was measured:
hCB1 [1] = target: T1, hCB1 (Homo sapiens, UniProt P21554); experiment: bioSensAll ebBRET signaling profiling, hCB1; format: cell-based; design: host or cells: HEK293SL cells, transient PEI transfection; conditions: for Gi1 hCB1 response: Gi1 biosensor; for Gi1 hCB1 / GoB hCB1: single replicate values, FigS6a; for EC50: read-out: EC50 [95% CI]; for Emax: normalized to CP-55,940
hCB1 [2] = target: T1, hCB1; experiment: Lance Ultra cAMP accumulation assay, CHO cells; format: cell-based; design: expressed in transfected cells; conditions: for cAMP assay signal, concentration-response point: replicates, sheet FigureS2a; for normalised cAMP response, concentration-response (Figure2f), replicate values: log[Compound;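 for all read-outs here: human CB1R stably expressed in CHO cells, ligands co-incubated with forskolin at room temperature, read-out is lowering of forskolin-stimulated cAMP accumulation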
CB1 (rCB1) [3] = target: T2, CB1 (rCB1) (Rattus norvegicus, UniProt P20272); experiment: Radioligand competition binding, [3H]-CP-55,940, rat brain membranes
CB1 (rCB1) [4] = target: T2, CB1 (rCB1); experiment: Single-point radioligand displacement screen; format: binding

T1 sequence (P21554 whole entry): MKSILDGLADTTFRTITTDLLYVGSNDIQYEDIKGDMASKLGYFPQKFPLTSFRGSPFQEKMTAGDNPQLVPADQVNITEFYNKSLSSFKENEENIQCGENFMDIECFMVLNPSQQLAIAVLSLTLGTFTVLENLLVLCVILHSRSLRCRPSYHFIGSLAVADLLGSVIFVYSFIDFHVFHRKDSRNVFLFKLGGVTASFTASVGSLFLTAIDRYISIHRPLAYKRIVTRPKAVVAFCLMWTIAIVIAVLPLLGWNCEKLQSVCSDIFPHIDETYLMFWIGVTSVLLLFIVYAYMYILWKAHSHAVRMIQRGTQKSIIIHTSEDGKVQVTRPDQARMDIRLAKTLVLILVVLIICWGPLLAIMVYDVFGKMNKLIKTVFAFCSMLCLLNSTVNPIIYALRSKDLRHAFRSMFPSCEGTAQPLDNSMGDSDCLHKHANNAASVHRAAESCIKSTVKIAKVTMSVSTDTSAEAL
T2 sequence (P20272 whole entry): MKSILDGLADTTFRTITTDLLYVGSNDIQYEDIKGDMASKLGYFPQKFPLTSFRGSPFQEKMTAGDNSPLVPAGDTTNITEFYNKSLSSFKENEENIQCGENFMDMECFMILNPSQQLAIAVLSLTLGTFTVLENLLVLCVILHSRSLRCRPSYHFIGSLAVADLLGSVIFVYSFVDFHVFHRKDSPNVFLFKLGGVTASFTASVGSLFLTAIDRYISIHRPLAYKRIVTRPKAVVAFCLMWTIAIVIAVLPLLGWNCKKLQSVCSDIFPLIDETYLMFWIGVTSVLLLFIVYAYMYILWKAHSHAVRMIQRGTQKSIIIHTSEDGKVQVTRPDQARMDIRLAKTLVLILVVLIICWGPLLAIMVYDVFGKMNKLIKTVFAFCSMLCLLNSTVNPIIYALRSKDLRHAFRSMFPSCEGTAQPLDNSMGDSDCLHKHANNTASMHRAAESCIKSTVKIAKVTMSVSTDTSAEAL

COC(=O)C(NC(=O)c1cc(C)n(-c2cccc(F)c2)n1)c1cccs1 (centres unmarked) [‘51486]
Gi1 hCB1 response (hCB1 [1]; Log [Compound] (M) -4.22186): 123.512 | Gi1 hCB1 response (hCB1 [1]; Log [Compound] (M) -4.63927): 98.3102 | Gi1 hCB1 response (hCB1 [1]; Log [Compound] (M) -5.05788): 74.9216 | Gi1 hCB1 response (hCB1 [1]; Log [Compound] (M) -5.47381): 77.764 | Gi1 hCB1 response (hCB1 [1]; Log [Compound] (M) -5.89285): 72.6387 | Gi1 hCB1 response (hCB1 [1]; Log [Compound] (M) -6.31878): 38.0146 | Gi1 hCB1 response (hCB1 [1]; Log [Compound] (M) -6.72585): 33.2921 | Gi1 hCB1 response (hCB1 [1]; Log [Compound] (M) -7.14267): -1.511 | Gi1 hCB1 response (hCB1 [1]; Log [Compound] (M) -7.55284): -15.3428 | Gi1 hCB1 response (hCB1 [1]; Log [Compound] (M) -8): 9.7692 | Gi1 hCB1 response (hCB1 [1]; Log [Compound] (M) -8.22186): 0.839 | Gi1 hCB1 response (hCB1 [1]; Log [Compound] (M) -8.39794): -12.3884 | Gi1 hCB1 response (hCB1 [1]; Log [Compound] (M) -8.68787): 2.204 | Gi1 hCB1 response (hCB1 [1]; Log [Compound] (M) -9.15521): -11.247 | Gi1 hCB1 response (hCB1 [1]; Log [Compound] (M) -9.61989): -13.1718 | Gi1 hCB1 response (hCB1 [1]; Log [Compound] (M) -10.0969): -6.323 | Gi1 hCB1 response (hCB1 [1]; Log [Compound] (M) -10.5529): -17.8943 | Gi1 hCB1 response (hCB1 [1]; Log [Compound] (M) -11.0177): -4.935 | Gi1 hCB1 response (hCB1 [1]; Log [Compound] (M) -11.4949): -5.54 | Gi1 hCB1 response (hCB1 [1]; Log [Compound] (M) -11.9208): -6.838 | Gi1 hCB1 response (hCB1 [1]; Log [Compound] (M) -12.3979): -1.466 | Gi1 hCB1 response (hCB1 [1]; Log [Compound] (M) -12.8861): -7.42 | Gi1 hCB1 response (hCB1 [1]; Log [Compound] (M) -13, individual replicate values): -9.747 and -10.7098 | Gi1 hCB1 (hCB1 [1]; Log [Compound] (M) -4.22186): 75.4915 | GoB hCB1 (hCB1 [1]; Log [Compound] (M) -4.22186): 69.3873 | Gi1 hCB1 (hCB1 [1]; Log [Compound] (M) -4.63927): 68.0453 | GoB hCB1 (hCB1 [1]; Log [Compound] (M) -4.63927): 69.0456 | Gi1 hCB1 (hCB1 [1]; Log [Compound] (M) -5.05788): 65.332 | GoB hCB1 (hCB1 [1]; Log [Compound] (M) -5.05788): 68.5421 | Gi1 hCB1 (hCB1 [1]; Log [Compound] (M) -5.47381): 58.8724 | GoB hCB1 (hCB1 [1]; Log [Compound] (M) -5.47381): 63.2909 | Gi1 hCB1 (hCB1 [1]; Log [Compound] (M) -5.89285): 46.1383 | GoB hCB1 (hCB1 [1]; Log [Compound] (M) -5.89285): 45.7032 | Gi1 hCB1 (hCB1 [1]; Log [Compound] (M) -6.31878): 23.9076 | GoB hCB1 (hCB1 [1]; Log [Compound] (M) -6.31878): 23.3139 | Gi1 hCB1 (hCB1 [1]; Log [Compound] (M) -6.72585): 13.671 | GoB hCB1 (hCB1 [1]; Log [Compound] (M) -6.72585): 15.8509 | Gi1 hCB1 (hCB1 [1]; Log [Compound] (M) -7.14267): 3.866 | GoB hCB1 (hCB1 [1]; Log [Compound] (M) -7.14267): 8.064 | Gi1 hCB1 (hCB1 [1]; Log [Compound] (M) -7.55284): 0.7982 | GoB hCB1 (hCB1 [1]; Log [Compound] (M) -7.55284): 4.971 | Gi1 hCB1 (hCB1 [1]; Log [Compound] (M) -8): -0.466 | GoB hCB1 (hCB1 [1]; Log [Compound] (M) -8): 0.09744 | Gi1 hCB1 (hCB1 [1]; Log [Compound] (M) -8.22186): 0.05819 | GoB hCB1 (hCB1 [1]; Log [Compound] (M) -8.22186): -3.517 | Gi1 hCB1 (hCB1 [1]; Log [Compound] (M) -8.39794): 0.459 | GoB hCB1 (hCB1 [1]; Log [Compound] (M) -8.39794): -0.9816 | Gi1 hCB1 (hCB1 [1]; Log [Compound] (M) -8.68787): -0.3118 | GoB hCB1 (hCB1 [1]; Log [Compound] (M) -8.68787): -2.33 | Gi1 hCB1 (hCB1 [1]; Log [Compound] (M) -9.15521): 0.7365 | GoB hCB1 (hCB1 [1]; Log [Compound] (M) -9.15521): -2.906 | Gi1 hCB1 (hCB1 [1]; Log [Compound] (M) -9.61989): 0.5515 | GoB hCB1 (hCB1 [1]; Log [Compound] (M) -9.61989): -0.9276 | Gi1 hCB1 (hCB1 [1]; Log [Compound] (M) -10.0969): 1.1836 | GoB hCB1 (hCB1 [1]; Log [Compound] (M) -10.0969): -3.176 | Gi1 hCB1 (hCB1 [1]; Log [Compound] (M) -10.5529): 0.2124 | GoB hCB1 (hCB1 [1]; Log [Compound] (M) -10.5529): -1.989 | Gi1 hCB1 (hCB1 [1]; Log [Compound] (M) -11.0177): 0.3974 | GoB hCB1 (hCB1 [1]; Log [Compound] (M) -11.0177): -1.521 | Gi1 hCB1 (hCB1 [1]; Log [Compound] (M) -11.4949): 0.1507 | GoB hCB1 (hCB1 [1]; Log [Compound] (M) -11.4949): -1.827 | Gi1 hCB1 (hCB1 [1]; Log [Compound] (M) -11.9208): -0.03431 | GoB hCB1 (hCB1 [1]; Log [Compound] (M) -11.9208): 0.2953 | Gi1 hCB1 (hCB1 [1]; Log [Compound] (M) -12.3979): -0.06514 | GoB hCB1 (hCB1 [1]; Log [Compound] (M) -12.3979): -1.179 | Gi1 hCB1 (hCB1 [1]; Log [Compound] (M) -12.8861): -0.466 | GoB hCB1 (hCB1 [1]; Log [Compound] (M) -12.8861): -2.798 | Gi1 hCB1 (hCB1 [1]; Log [Compound] (M) -13): -0.8976 and -0.03431 | GoB hCB1 (hCB1 [1]; Log [Compound] (M) -13): -1.143 and -0.8017 | pEC50 [95% CI] (hCB1 [1]; hCB1 Gi1): 6.1 [6.0 – 6.1] | pEC50 [95% CI] (hCB1 [1]; hCB1 GoB): 6.2 [6.1 – 6.2] | pEC50 [95% CI] (hCB1 [1]; hCB1 Gz): 6.0 [5.5 – 6.4] | EC50 (hCB1 [1]; hCB1 Gi1): 0.849 µM | EC50 (hCB1 [1]; hCB1 GoB): 0.711 µM | EC50 (hCB1 [1]; hCB1 Gz): 1.12 µM | Emax (hCB1 [1]; read-out: Emax [95% CI], hCB1 Gi1): 73% | Emax (hCB1 [1]; read-out: Emax [95% CI], hCB1 GoB): 74% | Emax (hCB1 [1]; read-out: Emax [95% CI], hCB1 Gz): 130% | cAMP assay signal, concentration-response point (hCB1 [2]; compound 0.01 nM): 0.003086 and 0.002857 and 0.002584 | cAMP assay signal, concentration-response point (hCB1 [2]; compound 0.1 nM): 0.003236 and 0.002959 and 0.003953* | cAMP assay signal, concentration-response point (hCB1 [2]; compound 1 nM): 0.003012 and 0.002545 and 0.00241 | cAMP assay signal, concentration-response point (hCB1 [2]; compound 10 nM): 0.003401 and 0.002801 and 0.00274 | cAMP assay signal, concentration-response point (hCB1 [2]; compound 100 nM): 0.002632 and 0.003106 and 0.002457 | cAMP assay signal, concentration-response point (hCB1 [2]; compound 1000 nM): 0.002532 and 0.002088 and 0.00216 | cAMP assay signal, concentration-response point (hCB1 [2]; compound 10000 nM): 0.001565 and 0.001538 and 0.001686 | cAMP assay signal, concentration-response point (hCB1 [2]; compound 100000 nM): 0.001247 and 0.001041 and 0.0009747 | agonism, inhibition of forskolin-stimulated cAMP (hCB1 [2]; hCB1-expressing cells, in words): modest agonism | normalised cAMP response, concentration-response (Figure2f), replicate values (hCB1 [2]; M] -5): 61.1478 and 37.2808 and 60.3783 and 74.6524 | normalised cAMP response, concentration-response (Figure2f), replicate values (hCB1 [2]; M] -6): 88.8547 and 72.8445 and 99.0012 and 98.4034 | normalised cAMP response, concentration-response (Figure2f), replicate values (hCB1 [2]; M] -7): 93.8057 and 91.7167 and 95.78 and 96.566 | normalised cAMP response, concentration-response (Figure2f), replicate values (hCB1 [2]; M] -8): 85.2922 and 84.747 and 110.313 and 100.436 | normalised cAMP response, concentration-response (Figure2f), replicate values (hCB1 [2]; M] -9): 104.899 and 94.89 and 101.982 and 109.312 | normalised cAMP response, concentration-response (Figure2f), replicate values (hCB1 [2]; M] -10): 98.9432 and 97.9859 and 99.2252 and 102.121 | normalised cAMP response, concentration-response (Figure2f), replicate values (hCB1 [2]; M] -11): 94.0694 and 79.1039 and 104.119 and 97.9362 | normalised cAMP response, concentration-response (Figure2f), replicate values (hCB1 [2]; M] -12): 99.9579 and 92.8829 and 101.899 and 97.9047 | Ki (CB1 (rCB1) [3]): 0.794 µM | LLE (lipophilic ligand efficiency) (CB1 (rCB1) [3]; LLE = pIC50 − clogP): 3.1 | binding free energy ΔG (CB1 (rCB1) [3]; from measured Ki): 8.4 kcal/mol | LE (ligand efficiency) (CB1 (rCB1) [3]; from rCB1 affinity): 0.32 | radioligand binding remaining, competition curve (Figure2e), replicate values (CB1 (rCB1) [3]; log[drug] -3.643): 5.353 and 8.4728 and 6.119 | radioligand binding remaining, competition curve (Figure2e), replicate values (CB1 (rCB1) [3]; log[drug] -4.35655): 7.365 and 2.197 and 0.3487 | radioligand binding remaining, competition curve (Figure2e), replicate values (CB1 (rCB1) [3]; log[drug] -5.07): 21.0991 and 15.6904 and 16.8933 | radioligand binding remaining, competition curve (Figure2e), replicate values (CB1 (rCB1) [3]; log[drug] -5.783): 52.9233 and 50.4184 and 37.5523 | radioligand binding remaining, competition curve (Figure2e), replicate values (CB1 (rCB1) [3]; log[drug] -6.496): 81.1314 and 84.728 and 72.9079 | radioligand binding remaining, competition curve (Figure2e), replicate values (CB1 (rCB1) [3]; log[drug] -7.21): 91.0402 and 102.441 and 95.6067 | radioligand binding remaining, competition curve (Figure2e), replicate values (CB1 (rCB1) [3]; log[drug] -7.923): 92.6538 and 100.244 and 104.603 | radioligand binding remaining, competition curve (Figure2e), replicate values (CB1 (rCB1) [3]; log[drug] -8.636): 97.1716 and 91.2657 | pKi [95% CI] (CB1 (rCB1) [3]; rCB1): 6.14 [6.01 –6.26] | % 1H-CP-55,940 displacement (mean) from single point screen (CB1 (rCB1) [4]; 10 µM, 1 µM or 300 nM by cell colour (not visible)): 90.60% | rep1_displacement (CB1 (rCB1) [4]; Figure 1c source data, replicate 1): 90.6
